Source: patent US20200024278A1, “COMPOSITION COMPRISING ANTIBIOTIC COMPOUND AND AN HETEROCYCLIC COMPOUND AND THEIR USE IN PREVENTING OR TREATING BACTERIAL INFECTIONS” (MUTABILIS, priority 2016, published 2020)
Where two headings read alike, the source gives them in different places.

How the values were obtained:
Experiment in all cases: MIC, broth microdilution (CLSI), substance alone or ATB combined with compound at 4 or 8 μg/mL
ECL P99 = assay type: cell-based, E. cloacae; settings: ECL P99; for MIC: Enterobacter cloacae
Summary of the method: (§1)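 CLSI broth microdilution in cation-adjusted Mueller-Hinton broth, 5·10^5 CFU/mL log-phase inoculum, 16-20 h at 35 °C in ambient air. Fosfomycin assays supplemented with 25 μg/ml glucose-6-phosphate.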

PAE 105250 = assay type: cell-based, P. aeruginosa; settings: PAE 105250
Summary of the method: as §1

PAE UFR48 = assay type: cell-based, P. aeruginosa; settings: PAE UFR48
Summary of the method: as §1

PAE UFR90 = assay type: cell-based, P. aeruginosa; settings: PAE UFR90
Summary of the method: as §1

SAU 29213 = assay type: cell-based, S. aureus; settings: SAU 29213
Summary of the method: as §1

SPN 49619 = assay type: cell-based, S. pneumoniae; settings: SPN 49619
Summary of the method: as §1

[1] = Pseudomonas aeruginosa, antibiotic alone, read-out: MIC ATB alone

## CC1(C)S[C@@H]2[C@H](NC(=O)[C@H](N)c3ccc(O)cc3)C(=O)N2[C@H]1C(=O)O [AMX, Amoxicillin, reference compound]
ECL P99; with Example 1 at 8 μg/ml
  MIC ATB combined with Example 1 @8 μg/ml: <0.031 µg/mL
ECL P99; with Example 7 at 8 μg/ml
  MIC ATB combined with Example 7 @8 μgml: >32 µg/mL
ECL P99; with Example 9 @4 μg/ml
  MIC ATB combined with Example 9 @4 μg/ml: <0.031 µg/mL
ECL P99; with Example 9 at 4 μg/ml
  MIC ATB combined with Example 9 @4 μg/ml: <0.031 µg/mL
ECL P99; with Example 11 at 8 μg/ml
  MIC ATB combined with Example 11 @8 μg/ml: <0.031 µg/mL
ECL P99; with Example 12 at 8 μg/ml
  MIC ATB combined with Example 12 @8 μg/ml: <0.031 µg/mL
ECL P99; with Example 13 at 8 μg/ml
  MIC ATB combined with Example 13 @8 μg/ml: >32 µg/mL
ECL P99; with Example 14 at 8 μg/ml
  MIC ATB combined with Example 14 @8 μg/ml: <0.031 µg/mL
ECL P99; with Example 15 at 4 μg/ml
  MIC ATB combined with Example 15 @4 μgml: <0.031 µg/mL
ECL P99; with Example 16 at 4 μg/ml
  MIC ATB combined with Example 16 @4 μg/ml: <0.031 µg/mL
ECL P99; antibiotic alone, read-out: MIC ATB alone
  MIC: > 1020 µg/mL
ECL P99; substance alone, read-out: MIC
  MIC: > 1020 µg/mL
PAE 105250; with Example 7 at 8 μg/ml
  MIC ATB combined with Example 7 @8 μgml: >32 µg/mL
PAE 105250; with Example 9 @4 μg/ml
  MIC ATB combined with Example 9 @4 μg/ml: >32 µg/mL
PAE 105250; with Example 9 at 4 μg/ml
  MIC ATB combined with Example 9 @4 μg/ml: >32 µg/mL
PAE 105250; with Example 11 at 8 μg/ml
  MIC ATB combined with Example 11 @8 μg/ml: >32 µg/mL
PAE 105250; with Example 12 at 8 μg/ml
  MIC ATB combined with Example 12 @8 μg/ml: >32 µg/mL
PAE 105250; with Example 13 at 8 μg/ml
  MIC ATB combined with Example 13 @8 μg/ml: >32 µg/mL
PAE 105250; with Example 14 at 8 μg/ml
  MIC ATB combined with Example 14 @8 μg/ml: >32 µg/mL
PAE 105250; with Example 15 at 4 μg/ml
  MIC ATB combined with Example 15 @4 μgml: >32 µg/mL
PAE 105250; with Example 16 at 4 μg/ml
  MIC ATB combined with Example 16 @4 μg/ml: >32 µg/mL
PAE 105250; [1]
  MIC: > 1020 µg/mL
PAE UFR48; with Example 1 @8 μg/ml
  MIC ATB combined with Example 1 @8 μg/ml: <0.031 µg/mL
PAE UFR48; with Example 1 at 8 μg/ml
  MIC ATB combined with Example 1 @8 μg/ml: <0.031 µg/mL
PAE UFR48; with Example 7 at 8 μg/ml
  MIC ATB combined with Example 7 @8 μgml: >32 µg/mL
PAE UFR48; with Example 9 @4 μg/ml
  MIC ATB combined with Example 9 @4 μg/ml: >32 µg/mL
PAE UFR48; with Example 9 at 4 μg/ml
  MIC ATB combined with Example 9 @4 μg/ml: >32 µg/mL
PAE UFR48; with Example 11 at 8 μg/ml
  MIC ATB combined with Example 11 @8 μg/ml: >32 µg/mL
PAE UFR48; with Example 12 at 8 μg/ml
  MIC ATB combined with Example 12 @8 μg/ml: >32 µg/mL
PAE UFR48; with Example 13 at 8 μg/ml
  MIC ATB combined with Example 13 @8 μg/ml: >32 µg/mL
PAE UFR48; with Example 14 at 8 μg/ml
  MIC ATB combined with Example 14 @8 μg/ml: >32 µg/mL
PAE UFR48; with Example 15 at 4 μg/ml
  MIC ATB combined with Example 15 @4 μgml: >32 µg/mL
PAE UFR48; with Example 16 at 4 μg/ml
  MIC ATB combined with Example 16 @4 μg/ml: >32 µg/mL
PAE UFR48; [1]
  MIC: > 1020 µg/mL
PAE UFR90; with Example 1 @8 μg/ml
  MIC ATB combined with Example 1 @8 μg/ml: <0.031 µg/mL
PAE UFR90; with Example 1 at 8 μg/ml
  MIC ATB combined with Example 1 @8 μg/ml: <0.031 µg/mL
PAE UFR90; with Example 7 at 8 μg/ml
  MIC ATB combined with Example 7 @8 μgml: >32 µg/mL
PAE UFR90; with Example 9 @4 μg/ml
  MIC ATB combined with Example 9 @4 μg/ml: >32 µg/mL
PAE UFR90; with Example 9 at 4 μg/ml
  MIC ATB combined with Example 9 @4 μg/ml: >32 µg/mL
PAE UFR90; with Example 11 at 8 μg/ml
  MIC ATB combined with Example 11 @8 μg/ml: >32 µg/mL
PAE UFR90; with Example 12 at 8 μg/ml
  MIC ATB combined with Example 12 @8 μg/ml: >32 µg/mL
PAE UFR90; with Example 13 at 8 μg/ml
  MIC ATB combined with Example 13 @8 μg/ml: >32 µg/mL
PAE UFR90; with Example 14 at 8 μg/ml
  MIC ATB combined with Example 14 @8 μg/ml: >32 µg/mL
PAE UFR90; with Example 15 at 4 μg/ml
  MIC ATB combined with Example 15 @4 μgml: >32 µg/mL
PAE UFR90; with Example 16 at 4 μg/ml
  MIC ATB combined with Example 16 @4 μg/ml: >32 µg/mL
PAE UFR90; [1]
  MIC: > 32 µg/mL
SAU 29213; with Example 1 @8 μg/ml
  MIC ATB combined with Example 1 @8 μg/ml: 0.25 µg/mL
SAU 29213; with Example 1 at 8 μg/ml
  MIC ATB combined with Example 1 @8 μg/ml: 0.25 µg/mL
SAU 29213; with Example 9 @4 μg/ml
  MIC ATB combined with Example 9 @4 μg/ml: <0.031 µg/mL
SAU 29213; with Example 9 at 4 μg/ml
  MIC ATB combined with Example 9 @4 μg/ml: <0.031 µg/mL
SAU 29213; with Example 11 at 8 μg/ml
  MIC ATB combined with Example 11 @8 μg/ml: <0.031 µg/mL
SAU 29213; with Example 12 at 8 μg/ml
  MIC ATB combined with Example 12 @8 μg/ml: <0.031 µg/mL
SAU 29213; with Example 14 at 8 μg/ml
  MIC ATB combined with Example 14 @8 μg/ml: <0.031 µg/mL
SAU 29213; with Example 15 at 4 μg/ml
  MIC ATB combined with Example 15 @4 μgml: <0.031 µg/mL
SAU 29213; with Example 16 at 4 μg/ml
  MIC ATB combined with Example 16 @4 μg/ml: <0.031 µg/mL
SAU 29213; Staphylococcus aureus, antibiotic alone, read-out: MIC ATB alone
  MIC: 2 µg/mL
SPN 49619; with Example 7 at 8 μg/ml
  MIC ATB combined with Example 7 @8 μgml: <=0.031 μg/mL
SPN 49619; with Example 9 @4 μg/ml
  MIC ATB combined with Example 9 @4 μg/ml: <0.031 µg/mL
SPN 49619; with Example 9 at 4 μg/ml
  MIC ATB combined with Example 9 @4 μg/ml: <0.031 µg/mL
SPN 49619; with Example 11 at 8 μg/ml
  MIC ATB combined with Example 11 @8 μg/ml: <0.031 µg/mL
SPN 49619; with Example 12 at 8 μg/ml
  MIC ATB combined with Example 12 @8 μg/ml: <0.031 µg/mL
SPN 49619; with Example 13 at 8 μg/ml
  MIC ATB combined with Example 13 @8 μg/ml: <=0.031 μg/mL
SPN 49619; with Example 14 at 8 μg/ml
  MIC ATB combined with Example 14 @8 μg/ml: <0.031 µg/mL
SPN 49619; with Example 15 at 4 μg/ml
  MIC ATB combined with Example 15 @4 μgml: <0.031 µg/mL
SPN 49619; with Example 16 at 4 μg/ml
  MIC ATB combined with Example 16 @4 μg/ml: <0.031 µg/mL
